Data reported in ChEMBL document CHEMBL1201862, “PubChem BioAssay data set” (2004).
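Exposure lasted 48 hours, with cells grown in 96-well plates and compounds tested at five concentrations. Here, GI50 denotes the concentration required for 50% inhibition of growth.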 The source made the active and inactive calls. Cut-off read from the data, not from the text of the source: active = GI50 up to about 1.1 µM and inactive = higher.

Legend:
Test in all cases: NCI tumour cell line growth inhibition, 48 h
[1] = tested on: MCF7
[2] = tested on: NCI-H522
[3] = tested on: HT-29
[4] = tested on: PC-3
[5] = tested on: SR
[6] = tested on: U-251
[7] = tested on: OVCAR-3
[8] = tested on: 786-0
[9] = tested on: NCI-H226
[10] = tested on: EKVX
[11] = tested on: UO-31
[12] = tested on: COLO 205
[13] = tested on: MOLT-4
[14] = tested on: LOX IMVI
[15] = tested on: IGROV-1
[16] = tested on: A549
[17] = tested on: OVCAR-4
[18] = tested on: HOP-92
[19] = tested on: NCI-H460
[20] = tested on: HCC 2998

Measured: GI50

Cc1ncc([N+](=O)[O-])n1CCNCCCCn1ccnc1[N+](=O)[O-]
inactive: [1] > 100 µM | [2] > 100 µM | [3] > 100 µM | [4] > 100 µM | [5] > 100 µM | [6] > 100 µM | [7] > 100 µM | [8] > 100 µM | [9] > 100 µM | [10] > 100 µM | [11] > 100 µM | [12] > 100 µM | [13] > 100 µM | [14] > 100 µM | [15] > 100 µM | [16] > 100 µM | [17] > 100 µM | [18] > 100 µM | [19] > 100 µM

O=C1OCCC12CN(Cc1ccccc1)N=N2 (centres undefined)
inactive: [1] > 100 µM | [2] 49.9 µM | [3] > 100 µM | [4] > 100 µM | [5] 13.2 µM | [6] > 100 µM | [20] > 100 µM | [7] > 100 µM | [8] > 100 µM | [11] > 100 µM | [12] > 100 µM | [13] > 100 µM | [16] > 100 µM | [17] > 100 µM | [18] > 100 µM | [19] > 100 µM

COc1ccc(/C=N/NC(=O)C2=C(N)N(c3ccccc3)C(=C(C#N)C#N)S2)cc1
inactive: [1] > 100 µM | [2] > 100 µM | [3] > 100 µM | [4] > 100 µM | [5] > 100 µM | [6] 63.8 µM | [20] > 100 µM | [7] 60.4 µM | [8] 62.5 µM | [9] > 100 µM | [10] > 100 µM | [11] > 100 µM | [12] > 100 µM | [13] > 100 µM | [15] > 100 µM | [16] > 100 µM | [17] > 100 µM | [18] 39.3 µM | [19] > 100 µM

CCn1c(-c2c(Cl)cc(O)cc2Cl)cc2c(Cl)cc(O)cc21
inactive: [1] 3.71 µM | [2] 1.72 µM | [3] 1.58 µM | [4] 9.04 µM | [5] 5.45 µM | [6] 4.03 µM | [7] 6.08 µM | [8] 4.66 µM | [9] 26.4 µM | [10] 13.2 µM | [11] 7.83 µM | [12] 15.2 µM | [13] 8.87 µM | [14] 6.38 µM | [15] 3.21 µM | [16] 4.42 µM | [17] 4.85 µM | [18] 13.8 µM | [19] 3.56 µM

O=C1NC(Cc2c[nH]c3ccccc23)C(=O)N2C(C3CCCCC3)c3[nH]c4ccccc4c3C[C@@H]12 (some centres undefined)
inactive: [1] 9.08 µM | [2] 7.98 µM | [3] 14.9 µM | [4] 7.05 µM | [5] 7.45 µM | [6] 11.4 µM | [7] 2.38 µM | [8] 11.4 µM | [9] 24.2 µM | [10] 16 µM | [11] 14.1 µM | [12] 17.2 µM | [13] 5.97 µM | [14] 13.3 µM | [15] 13.8 µM | [16] 10.9 µM | [17] 11.1 µM | [18] 15.4 µM

CCN(CC)CCCNc1nc2ccccc2[n+]([O-])n1
inactive: [1] 50.9 µM | [2] > 100 µM | [3] > 100 µM | [4] > 100 µM | [5] > 100 µM | [6] > 100 µM | [20] > 100 µM | [7] > 100 µM | [8] > 100 µM | [9] > 100 µM | [11] > 100 µM | [12] > 100 µM | [13] > 100 µM | [15] > 100 µM | [16] > 100 µM | [17] > 100 µM | [18] > 100 µM | [19] > 100 µM
